The structures appear in SMILES notation.

In assay [1] the test system is C57BL/6NTac mice. Nature of the assay: Imiquimod-induced skin inflammation, ears and back skin: RORγ-dependent gene expression and ex vivo stimulated whole blood IL-17A. In kind it is in vivo, mouse. The source says: (§1) Imiquimod is an immune modifying agent that potently activates specific Toll-like receptors (e.g., TLR7) and induces irritation/inflammation of the skin that requires the IL23R/RORγ/IL17 axis of the immune system (van der Fits et al, (2009) J Immunol; 182:5836-5845; Gray et al, (2013) Nature Immunol; June; 14(6):584-92). The imiquimod-induced skin inflammation model can be used to assess the ability of an RORγ inhibitor to reduce Th17-driven inflammation in mice. For the ear-only skin inflammation model in which ear thickness was measured with digital engineer's calipers (Mitutoyo PK-0505), female wild type C57BL/6NTac mice obtained from Taconic (Hudson, N.Y.) at 8 to 12 wk of age received a daily topical dose of 10 mg of commercially available imiquimod cream (5%) (Aldara; Medicis) distributed over both ears at approximately 11:00 h for up to 4 consecutive days. Alternatively, 72 mg of Aldara was distributed over both ears and the shaved/depiliated back skin of mice at approximately 11:00 h for 3 consecutive days to examine RORγ-dependent gene expression (RNA isolated from both ears using Qiazol followed by clean-up on with the RNeasy protocol (Qiagen, Germantown, Md.); Taqman probe/primer sets for B2M (Mm00437762_ml), IL-17A (Mm00439619_ml), IL-17F (Mm00521423_ml), or IL-22 (Mm00444241_ml) (Thermo Fisher Scientific, Inc., Waltham, Mass.) and ex vivo stimulated (anti-CD3 (2 μg/ml, clone eBio500A2, eBioscience, San Diego, Calif.), anti-CD28 (1 μg/ml, clone 37.51, BD Bioscience, San Jose, Calif.), recombinant mouse IL-13 (20 ng/ml, R&D Systems, Minneapolis, Minn.), and recombinant mouse IL-23 (20 ng/ml, R&D Systems, Minneapolis, Minn.) IL-17A protein expression from whole blood (Meso Scale Discovery, Rockville, Md.). For treatment of the skin inflammation in these models, each compound or vehicle (methylcellulose in water, 1% w/v, Sigma Aldrich, St. Louis, Mo.) was administered via oral gavage at approximately 08:00 h and 16:00 h daily at various doses selected from 1, 3, 10, and 30 mg/kg.

The test system of assay [2] is C57BL/6NTac mice. Put plainly: Imiquimod-induced skin inflammation, ear-only model (ear thickness). Type of assay: in vivo, mouse. To be noted: for imiquimod-induced ear thickening: oral gavage twice daily, Studies 1-4.
Source text: as §1

In the case of `Cc1c(CN2CCN(C(=O)C3CCCC3)[C@@H](C)C2)cc(Cl)cc1NC(=O)CCS(C)(=O)=O` [Example 43, (S)—N-(5-chloro-3-((4-(cyclopentanecarbonyl)-3-methylpiperazin-1-yl)methyl)-2-methylphenyl)-3-(methylsulfonyl)propanamide], in the assay with C57BL/6NTac mice [1] (study A, 10 mg/kg oral), the “IL17A protein expressed following ex vivo stimulation of whole blood” value is recorded as “significantly reduced” and the “ear mRNA levels of IL17A, IL17F, or IL22” value is reported as “no significant reduction”. Moreover, in the assay with C57BL/6NTac mice [1] (study B, 10 mg/kg oral), the “IL17F mRNA levels in the ear skin” value is on record as “significantly reduced” and the “IL22 mRNA levels in the ear skin” value is listed as “significantly reduced”. The “IL17A mRNA levels in the ear skin” value in the assay on C57BL/6NTac mice [1] (study C) is “reached statistical significance”. In addition, the imiquimod-induced ear thickening entry with C57BL/6NTac mice [2] (10 mg/kg) is listed as “statistically significant reduction”. In addition, the imiquimod-induced ear thickening entry in the assay on C57BL/6NTac mice [2] (30 mg/kg) is given as “statistically significant reduction”. Moreover, the “imiquimod-induced ear thickening, versus vehicle (FIG. 1)” value in the assay on C57BL/6NTac mice [2] (FIG. 1, dose not stated) is listed as “statistically significant reduction”.

These data come from patent US9902735B2, “Heteroaryl substituted compounds as RORγ inhibitors” (GlaxoSmithKline Intellectual Property Developement Limited, priority 2014, dated 2018).
